Results published in PMC10544575, “Inhibitory mechanism of vortioxetine on CYP450 enzymes in human and rat liver microsomes” (Frontiers in Pharmacology, 2023).
Where two headings read alike, the source gives them in different places.

What was measured:
CYP2D6 = CYP2D6 (Homo sapiens, UniProt P10635); assay: IC50 of vortioxetine on CYP2D6 (dextromethorphan) in HLMs; type: in vitro ADME; set-up: 0.20 mg/mL HLMs; from tissue; host or cells: human liver microsomes
Description: (§1) The components of the incubation system were as follows: 0.20 mg/mL HLMs or 0.20 mg/mL RLMs, 0.1 M Tris-HCl, vortioxetine, and the probe substrates of each enzyme. In the study of Km’s (Michaelis–Menten constant) experiment, midazolam (1, 2, 5, 10, 20, 50 and 100 μM in HLMs and RLMs) corresponded to CYP3A4/3A; bupropion (10, 20, 50, 100, 200, 500, 1,000 and 2000 μM in HLMs; 1, 2, 5, 10, 20, 50, 100 and 200 μM in RLMs) corresponded to CYP2B6/2B; amodiaquine (5, 10, 20, 50, 100 and 200 μM in HLMs; 10, 20, 50, 100, 200, 500 μM in RLMs) corresponded to CYP2C8/CYP2C-1; losartan (1, 2, 5, 10, 20, 50, 100, 200 μM in HLMs; 10, 20, 50, 100, 200, 500 and 1,000 μM in RLMs) corresponded to CYP2C9/CYP2C-2; mephenytoin (20, 50, 100, 200, 500 and 1,000 μM in HLMs; 5, 10, 20, 50, 100, 200, 500 and 1,000 μM in RLMs) corresponded to CYP2C19/CYP2C-3; and dextromethorphan (1, 2, 5, 10, 20, 50 and 100 μM in HLMs and RLMs) corresponded to CYP2D6/CYP2D. […]
(§2) All experiments results were detected by UPLC-MS/MS, which equipped with a Waters Acquity UPLC system (Milford, MA, United States) and a Waters Xevo TQ-S triple quadrupole tandem mass spectrometer with an electrospray ionization source (Milford, MA, United States). […]
(§3) IC50 values and enzyme kinetic parameters were calculated by Graphpad Prism 6.0 (GraphPad software Inc., CA, United States). […] Data for each experiment were expressed as mean ± SD (n = 3).

CYP2C8 = target: T1, CYP2C8 (Homo sapiens, UniProt P10632); assay: IC50-shift experiment, CYP2C8 in HLMs; type: in vitro ADME; set-up: 0.20 mg/mL HLMs or 0.20 mg/mL RLMs; from tissue; host or cells: human liver microsomes; settings: for IC50: amodiaquine 3 μM
T1 sequence (P10632 1-490): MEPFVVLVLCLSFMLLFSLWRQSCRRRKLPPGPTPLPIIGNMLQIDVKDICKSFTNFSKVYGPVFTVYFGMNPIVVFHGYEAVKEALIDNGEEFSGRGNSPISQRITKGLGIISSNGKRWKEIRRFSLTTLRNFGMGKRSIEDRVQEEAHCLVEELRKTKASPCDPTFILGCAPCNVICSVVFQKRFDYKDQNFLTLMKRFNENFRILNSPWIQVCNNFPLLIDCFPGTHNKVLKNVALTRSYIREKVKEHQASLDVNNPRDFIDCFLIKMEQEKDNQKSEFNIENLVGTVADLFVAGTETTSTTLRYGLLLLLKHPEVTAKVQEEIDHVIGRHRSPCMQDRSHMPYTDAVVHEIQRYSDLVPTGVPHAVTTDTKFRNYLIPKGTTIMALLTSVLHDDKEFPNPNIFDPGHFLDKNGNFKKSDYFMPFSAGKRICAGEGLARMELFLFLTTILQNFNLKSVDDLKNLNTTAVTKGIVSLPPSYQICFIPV
Description: as §1, with “CYP2D6/CYP2D. After 5.0 min of preincubation in the shaking water bath, the reaction was started with the addition of 1.0 mM NADPH. The incubated temperature at 37°C for 30 min. After the incubation, the enzyme reaction was stopped by cooling at −80°C, and 200 μL of acetonitrile and 20 μL of internal standard diazepam (200 ng/mL) were added for protein precipitation.” for “CYP2D6/CYP2D.”
IC50-shift was used to investigate whether the drug produced time-dependent inhibition (TDI) of the enzyme. […] During the experiment, the individual substrates midazolam (4 μM), bupropion (40 μM), amodiaquine (3 μM), losartan (8 μM), mephenytoin (90 μM), and dextromethorphan (10 μM) were determined with vortioxetine IC50-shift in HLMs. […]
as §2, §3

Sequence of CYP2D6 (P10635 whole entry): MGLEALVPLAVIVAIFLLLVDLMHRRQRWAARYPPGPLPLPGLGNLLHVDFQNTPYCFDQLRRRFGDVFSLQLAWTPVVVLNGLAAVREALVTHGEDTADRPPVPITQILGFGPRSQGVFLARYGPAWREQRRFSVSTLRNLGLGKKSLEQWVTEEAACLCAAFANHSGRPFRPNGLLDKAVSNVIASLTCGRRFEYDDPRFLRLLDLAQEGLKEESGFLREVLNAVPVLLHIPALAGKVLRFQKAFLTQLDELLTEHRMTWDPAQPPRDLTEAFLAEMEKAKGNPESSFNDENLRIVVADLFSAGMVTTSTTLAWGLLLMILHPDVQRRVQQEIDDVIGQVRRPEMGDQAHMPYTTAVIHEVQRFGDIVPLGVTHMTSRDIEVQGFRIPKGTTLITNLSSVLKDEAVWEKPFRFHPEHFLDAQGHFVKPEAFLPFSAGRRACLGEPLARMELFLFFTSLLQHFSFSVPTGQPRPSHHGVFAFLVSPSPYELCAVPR

`Cc1ccc(Sc2ccccc2N2CCNCC2)c(C)c1` [vortioxetine] gave an IC50 (CYP2D6; HLMs 0.20 mg/mL, dextromethorphan at Km, 37°C, 30 min, read-out: IC50) of 17.9 µM, an IC50 (CYP2D6; inhibitory effect (strength judged by IC50), HLMs) of over 10 µM and an IC50 (CYP2C8; 30 min preincubation with 1.0 mM NADPH) of 18.7 µM. The IC50 (CYP2C8; 30 min preincubation without NADPH) was 18.2 µM and the IC50 shift at 30 min (CYP2C8; human, human liver microsomes, probe amodiaquine (3 μM), ratio IC50 (−) NADPH to IC50 (+) NADPH, read-out: IC50 fold shift) was 0.97.
